Experimental findings from patent US11021481B2, “Substituted isoindolin-1-ones and 2,3-dihydro-1h-pyrrolo[3,4-c]pyridin-1-ones as HPK1 antagonists” (Nimbus Saturn, Inc., priority 2019, dated 2021) are described below.

Sequence of HPK1 (Q92918 whole entry): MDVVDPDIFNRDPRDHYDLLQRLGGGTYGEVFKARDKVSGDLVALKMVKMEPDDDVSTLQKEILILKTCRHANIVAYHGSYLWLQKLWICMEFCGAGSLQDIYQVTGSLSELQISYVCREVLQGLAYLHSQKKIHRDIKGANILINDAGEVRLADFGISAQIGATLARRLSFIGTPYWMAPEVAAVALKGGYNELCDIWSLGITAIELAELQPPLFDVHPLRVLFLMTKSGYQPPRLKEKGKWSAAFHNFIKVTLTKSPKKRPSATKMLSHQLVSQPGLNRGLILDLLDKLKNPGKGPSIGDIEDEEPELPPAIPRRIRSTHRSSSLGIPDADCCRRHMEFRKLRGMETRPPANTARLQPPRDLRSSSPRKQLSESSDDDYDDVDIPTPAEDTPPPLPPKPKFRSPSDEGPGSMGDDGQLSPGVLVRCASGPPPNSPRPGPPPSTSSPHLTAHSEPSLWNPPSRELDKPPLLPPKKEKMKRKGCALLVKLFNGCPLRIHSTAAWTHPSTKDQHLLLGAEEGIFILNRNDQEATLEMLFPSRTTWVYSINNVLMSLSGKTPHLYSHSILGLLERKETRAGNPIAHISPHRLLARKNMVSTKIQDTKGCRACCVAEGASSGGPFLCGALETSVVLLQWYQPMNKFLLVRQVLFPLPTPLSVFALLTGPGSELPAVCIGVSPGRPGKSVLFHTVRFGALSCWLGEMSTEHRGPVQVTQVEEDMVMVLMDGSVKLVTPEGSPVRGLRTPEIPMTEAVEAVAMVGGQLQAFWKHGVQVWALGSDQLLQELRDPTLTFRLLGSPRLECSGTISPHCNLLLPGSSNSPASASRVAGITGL

The assay concerns the target HPK1 (Homo sapiens (Human), UniProt Q92918). The assay can be described thus: HPK1 biochemical enzyme assay (microfluidic mobility shift assay). The settings on record: 1.5 nM HPK1, ATP 1 mM final, 30 min preincubation, 60 min at RT, Caliper EZ Reader; read-out: HPK1 1000UMATP caliper IC50. Put shortly:
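Mobility shift readout of HPK1 activity after a 60 min RT reaction with 1 mM ATP, 1 μM substrate and 5 mM MgCl2. Enzyme/substrate mix was first exposed to compounds for 30 min, using ten-point curves topping at 3 μM final.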
What is called IC50 is the concentration that inhibits the measured activity by half. With `CN(C)C[C@H]1CN(c2ccc(Nc3ccc(-c4cnc5cc(F)ccn45)c4c3C(=O)NC4)nc2)CCO1` [I-604, (S)-7-((5-(2-((dimethylamino)-methyl)mor pholino)pyridin-2-yl)amino)-4-(7-fluoroimidazo [1,2-a]pyridin-3-yl)isoindolin-1-one], the IC50 is less than 100 nM.

With `CN(C)C(C)(C)c1nc(Nc2ccc(-c3cnc4cc(F)ccn34)c3c2C(=O)NC3)ccc1[C@H]1CCOC1` [I-832, (R)-7-((6-(2-(dimethylami-no)propan-2-yl)-5-(THF-3-yl)pyridin-2-yl)amino)-4-(7-fluoroimidazo [1,2-a]pyridin-3-yl)isoindolin-1-one], the IC50 was in the range of 100 to 1000 nM.

For `CC(C)([C@H]1CN(c2ccc(Nc3ccc(-c4cnc5cc(F)ccn45)c4c3C(=O)NC4)nc2)CCO1)N1CC(O)C1` [I-698], the IC50 is less than 100 nM.

Consider `COCCN(C)c1ccc(Nc2ccc(-c3cnc4cc(F)ccn34)c3c2C(=O)NC3)nc1` [I-235, 4-(7-fluoroimidazo [1,2-a]pyridin-3-yl)-7-[[5-[2-methoxyethyl (methyl)amino]-2-pyridyl]amino] isoindolin-1-one], for which the IC50 was less than 100 nM.

For `O=C1NCc2c(-c3cnc4cc(F)ccn34)ccc(Nc3ccc(C4CCOC4)c(CO)n3)c21` (stereo not shown) [I-771, 4-(7-fluoroimidazo [1,2-a]pyridin-3-yl)-7-((6-(hydroxymeth-yl]-5-(tetrahydrofuran-3-yl)pyridin-2-yl)amino)isoin-dolin-1-one], the IC50 was less than 100 nM.

With `CN(C)CC1COCCN1c1ccc(Nc2ccc(-c3cnc4cc(F)ccn34)c3c2C(=O)NC3)nc1` (stereo not shown) [I-517, 7-[ [5-[3-[(dimethylamino)-methyl]mor-pholin-4-yl]-2-pyridyl]amino]-4-(7-fluoroimidazo [1,2-a]pyridin-3-yl)isoindolin-1-one], the IC50 was less than 100 nM.

As to `Cc1cccc2c(-c3ccc(Nc4ccc(N5CCNCC5)cn4)c4c3CNC4=O)cnn12` [I-84, 4-(7-methylpyrazolo [1,5-a]pyridin-3-yl)-7-[(5-piperazin-1-yl-2-pyridyl)amino] isoindolin-1-one], the IC50 is less than 100 nM.

Consider `CC(C)(O)[C@H]1CCCN(c2ccc(Nc3ccc(-c4cnc5cnccn45)c4c3C(=O)NC4)nc2)C1` [I-310, (S)-7-((5-(3-(2-hydroxypropan-2-yl)piperidin-1-yl)pyridin-2-yl)amino)-4-(imidazo[1,2-a]pyrazin-3-yl)isoindolin-1-one], for which the IC50 was less than 100 nM.

For the molecule `O=C1NCc2c(-c3cnc4c(F)cccn34)ncc(Nc3ccc(N4CC[C@H](F)[C@@H](O)C4)cn3)c21` [I-653, 7-((5-((3S.4S)-4-fluoro-3-liydroxy-piperidin-1-yl)pyridin-2-yl)amino)-4-(8-fluoroimidazo [1,2-a]pyridin-3-yl)-2,3-dihydro-1H-pyrrolo[3,4-c]pyridin-1-one], the IC50 was less than 100 nM.

As to `CC(C)(O)[C@H]1CCCN(c2ccc(Nc3ccc(-c4cnc5cc(F)ccn45)c4c3C(=O)NC4)nc2)C1` [I-213, 4-(7-fluoroimidazo [1,2-a]pyridin-3-yl)-7-[[5-[(3S)-3-(1-hydroxy-1-methyl-ethyl)-1-piperidyl]-2-pyridyl]amino] isoindolin-1-one], the IC50 is less than 100 nM.

Take `CCN(CC)Cc1nc(Nc2ccc(-c3cnc4cc(F)ccn34)c3c2C(=O)NC3)ccc1[C@@H]1CCOC1` [I-511, (S)-7-((6-((diethylamino)methyl)-5-(tetrahydrofuran-3-yl)pyridin-2-yl)amino)-4-(7-fluoroimidazo [1,2-a]pyridin-3-yl)isoindolin-1-one]: the IC50 was less than 100 nM.

On to `O=C1NCc2c(-c3cnc4ccccn34)ncc(Nc3ccc(N4CCC(O)CC4)cn3)c21` [I-160, 7-[[5-(4-hydroxy-1-piperidyl)-2-pyridyl]amino]-4-imidazo[1,2-a]pyridin-3-yl-2,3-dihydropyrrolo [3,4-c]pyridin-1-one], for which the IC50 is less than 100 nM.

As to `Cc1ccn2c(-c3ccc(Nc4ccc(N5CCO[C@H](C(C)(C)O)C5)cn4)c4c3CNC4=O)cnc2n1` [I-645, (S)-7-((5-(2-(2-hydroxypropan-2-yl)morpliolino)pyridin-2-yl)amino)-4-(7-methylimidazo [1,2-a]pyrimidin-3-yl) isoindolin-1-one], the IC50 is less than 100 nM.

On to `Cc1cc2c(-c3ncc(Nc4ccc(N5CCN(C)CC5)cn4)c4c3CNC4=O)ccnc2[nH]1` [I-55, 7-[[5-(4-methylpiperazin-1-yl)-2-pyridyl]amino]-4-(2-methyl-1H-pyrrolo[2,3-b]pyridin-4-yl)-2,3-dihydropyrrolo [3,4-c]pyridin-1-one], for which the IC50 is less than 100 nM.

Consider `CN1CCN(c2cccc(Nc3ccc(-c4cnc5cc(F)ccn45)c4c3C(=O)NC4)n2)CC1` [I-230, 4-(7-fluoroimidazo [1,2-a]pyridin-3-yl)-7-[[6-(4-methylpiperazin-1-yl)-2-pyridyl)amino] isoindolin-1-one], for which the IC50 was less than 100 nM.

For “4-(1-methyl- 1H-indol-4- yl)-7-((5- (piperazin-1- yl)pyridin-2- yl)amino)-2,3- dihydro-1H- pyrrolo[3,4- c]pyridin-1-one [I-266]”, the IC50 was less than 100 nM.

With `O=C1NCc2c(-c3cccc4ccnn34)ncc(Nc3ccc(N4CCC(O)CC4)cn3)c21` [I-368, 7-((5-(4-hydroxypiperidin-1-yl)pyridin-2-yl)amino)-4-(pyrazolo[1,5-a]pyridin-7-yl)-2,3-dihydro-1H-pyrrolo[3,4-c]pyridin-1-one], the IC50 was greater than 1000 nM.

For `CN1CC(O)(C2CCCN(c3ccc(Nc4ccc(-c5cnc6cc(F)ccn56)c5c4C(=O)NC5)nc3)C2)C1` (stereo in doubt) [I-678, (R)-4-(7-fluoroimidazo [1,2-a]pyridin-3-yl)-7-((5-(3-(3-hydroxy-1-methylazetidin-3-yl)piperidin-1-yl)pyridin-2-yl)amino)isoin-dolin-1-one], the IC50 was less than 100 nM.

As to `COC[C@H]1CN(c2ccc(Nc3cnc(-c4ccnc5c4ccn5C)c4c3C(=O)NC4)nc2CN(C)C)CCO1` [I-798, (R)-7-((6-((dimethylamino)-methyl)-5-(2-(methoxymeth-yl)morpholino)pyridin-2-yl)amino)-4-(1-methyl-1H-pyrrolo[2,3-b]pyridin-4-yl)-2,3-dihydro-1H-pyrrolo[3,4-c]pyridin-1-one], the IC50 is less than 100 nM.

For the molecule `CNC(C)(C)[C@H]1CN(c2ccc(Nc3ccc(-c4cnc5cc(F)ccn45)c4c3C(=O)NC4)nc2)CCO1` (single isomer, unassigned) [I-676], the IC50 was less than 100 nM.

`O=C1NCc2c(-c3cnc4cccnn34)ccc(Nc3ccc(N4CCC(O)CC4)cn3)c21` [I-162, 7-[[5-(4-hydroxy-1-piperidyl)-2-pyridyl]amino]-4-imidazo[1,2-b]pyridazin-3-yl-isoindolin-1-one]: the IC50 was less than 100 nM.

Turning to `O=C1NCc2c(-c3cnc4c(F)cccn34)ncc(Nc3ccc(N4CC[C@@H](F)[C@@H](O)C4)cn3)c21` [I-659], the IC50 was less than 100 nM.

`O=C1NCc2c(-c3cnc4cc(F)ccn34)ccc(Nc3ccc(N4CC[C@@H](O)[C@H](F)C4)cn3)c21` [I-399, 7-((5-((3R,4R)-3-fluoro-4-hydroxy-piperidin-1-yl)pyridin-2-yl)amino)-4-(7-fluoroimidazo [1,2-a]pyridin-3-yl)isoindolin-1-one]: the half-inhibitory concentration (IC50) was less than 100 nM.

Take `CC(C)N(C)Cc1nc(Nc2ccc(-c3cnc4cc(F)ccn34)c3c2C(=O)NC3)ccc1C1CCOC1` (stereo in doubt) [I-729, (S)-4-(7-fluoroimidazo [1,2-a]pyridin-3-yl)-7-((6-((isopropyl(methyl)amino)methyl)-5-(tetrahydrofuran-3-yl)pyridin-2-yl)amino)isoin-dolin-1-one]: the IC50 was less than 100 nM.

On to `O=C1NCc2c(-c3cnc4c(C(F)(F)F)cccn34)ccc(Nc3ccc(N4CCC(O)CC4)cn3)c21` [I-149], for which the IC50 was less than 100 nM.

Take `CN(CC1(O)CCCN(c2ccc(Nc3ccc(-c4cnc5cc(F)ccn45)c4c3C(=O)NC4)nc2)C1)C1CC1` (stereo not shown) [I-491, 7-[[5-[3-[[cyclopropyl (methyl)amino]methyl]-3-hydroxy-1-piperidyl]-2-pyridyl]amino] 4-(7-fluoroimidazo [1,2-a]pyridin-3-yl)isoindolin-1-one]: the IC50 was less than 100 nM.

Turning to `O=C1NCc2c(-c3cnc4cc(F)ccn34)ccc(Nc3ccc(N4CCO[C@H](CN5CC(F)C5)C4)cn3)c21` [I-482, 7-[[5-[(2R)-2-[(3-fluoroazetidin-1-yl)methyl]mor pholin-4-yl]-2-pyridyl]amino] 4-(7-fluoroimidazo [1,2-a]pyridin-3-yl)isoindolin-1-one], the IC50 is less than 100 nM.

Consider `CN(C)Cc1nc(Nc2ccc(-c3ccnc4c3ccn4C)c3c2C(=O)NC3)ccc1[C@H]1CCOC1` [I-546, (R)-7-((6-((dimethylamino)-methyl)-5-(tetrahydrofuran-3-yl)pyridin-2-yl)amino)-4-(1-methyl-1H-pyrrolo[2,3-b]pyridin-4-yl)isoindolin-1-one], for which the IC50 is less than 100 nM.

As for `CO[C@H]1CC[C@H](CO)N(c2ccc(Nc3ccc(-c4cnn5c4CCCC5)c4c3C(=O)NC4)nc2)C1` [I-571, 7-((5-((2R,5S)-2-(hydroxymeth-yl)-5-methoxy-piperidin-1-yl)pyridin-2-yl)amino)-4-(4,5,6,7-tetrahydropyra-zolo[1,5-a]pyridin-3-yl)isoindolin-1-one], the IC50 is less than 100 nM.

With `Cc1[nH]c2ncccc2c1-c1ccc(Nc2ccc(N3CCN(C)CC3)cn2)c2c1CNC2=O` [I-27, 7-[[5-(4-methylpiperazin-1-yl)-2-pyridyl]amino]-4-(2-methyl-1H-pyrrolo[2,3-b]pyridin-3-yl)-isoindolin-1-one], the IC50 lay in the range of 100 to 1000 nM.

With `Cc1ccn2c(-c3ccc(Nc4ccc(N5CCC[C@H](C(C)(C)O)C5)cn4)c4c3CNC4=O)cnc2n1` [I-225, 7-[[5-[(3S)-3-(1-hydroxy-1-methyl-ethyl)-1-piperidyl]-2-pyridyl]-amino]-4-(7-methylimidazo [1,2-a]pyrimidin-3-yl)isoindolin-1-one], the IC50 is less than 100 nM.
